Source: PMC10517462, “Small molecule targeting of the p38/Mk2 stress signaling pathways to improve cancer treatment” (BMC Cancer, 2023)

Key:
NCI-H69 cells [1] = experiment: FACS-based (DRAQ7) viability assay; type: cell-based, human
Description: […] Etoposide, SB203580 and MK2.III were all dissolved in 0.2% of DMSO before use. Cells treated only with the carrier molecule DMSO (0.2%) served as a control.
Viability analysis was performed by staining with the […], stoichiometric DNA stain DRAQ7 (640 or 633 nm excitation and 670 nm emission; Biostatus Limited). After 48-h treatment with DNA damaging agents and/or inhibitors, cells were washed once with RPMI 1640 and resuspended in 1 ml culture media at a concentration of less than 5 × 10^5/ ml. Cells were stained with 20 µM of DRAQ7 and incubated at 37 °C for 10 min before FACS Calibur cytometer analysis. Fluorescent signals were amplified using linear mode. Cell cycle analysis was performed either by staining DRAQ7 or Propidium Iodide (PI). Cells were stained with 20 µM of DRAQ7 and incubated at 37 °C for 10 min before analysis on a FACSCalibur cytometer. Propidium Iodide (PI, excited with 488 nm laser, collected with 585/52 bandpass filter) was used in the large-scale experiments. Samples were then fixed with 70% EtOH following the viability assay and stored at 4 °C overnight before the experiment. After fixation with 70% EtOH (added drop-wise) for 24 h, samples were centrifuged into the pellet and then washed twice with ice-cold PBS. The supernatant was discarded and pellets were resuspended in 100 µl of RNase A (100 µg/ml) and 400 µl of PI ([…] in PBS). Analysis of flow cytometry data was performed using FlowJo software. Untreated, unstained cells were used as a negative control to determine the location of viable cells on the dot plots. Events below a threshold size were interpreted as cellular debris and were removed from the dataset, leaving a whole cell population.

[2] = test system: MDA-MB-231 breast cancer cell line; experiment: CCK8 cell viability assay, MDA-MB-231; type: cell-based, human; conditions: MK2.III 1 µM or etoposide 150 µM alone, 24 h
Description: (§1) To assess the effect of MK2.III kinase inhibitor and the etoposide (VP-16) on the viability of different cancer cell lines, cells were seeded in 96-well plates in a concentration of 5000 cells per well. After 12 h, etoposide and 1 μM MK2.III diluted in culture media were added into the wells for 24 h. NCI-H69 cells were exposed to a series of etoposide concentrations from 20 μM to 150 μM. MDA-MB-231, SW 620, and SW 480 cell lines were incubated with 150 μM etoposide. After treatment, 10 μL of the CCK-8 reagent (96992, Sigma) was added to each well for 1 h followed by optical density measurement at 450 nm using hybrid plate reader Synergy H1.

[3] = test system: SW620 colorectal cancer cell line; experiment: CCK8 cell viability assay, SW620; type: cell-based, human; conditions: MK2.III 1 µM or etoposide 150 µM alone, 24 h
Description: as §1

[4] = test system: SW480 colorectal cancer cell line; experiment: CCK8 cell viability assay, SW480; type: cell-based, human; conditions: MK2.III 1 µM alone, 24 h
Description: as §1

NCI-H69 xenograft = experiment: Tumor (xenograft) suppression with combination chemotherapy in SCID mice; type: in vivo; conditions: for Tumor Volume (mm^3) median (25th and 75th quartile): VP-16 12 mg/kg
Description: To establish the most suitable xenograft model for the main experiment we used two mouse lines – BALB/c Nude and SCID (both female, 6 weeks, n = 20, Charles River). Both mouse lines were injected with NCI-H69 cancer cells (xenograft). Before injection, cells were grown at 37 °C in RPMI-1640 medium containing 10% FBS and pen/strep. Cells were mixed with Matrigel (1:1) and depending on the group 5 × 10^6 or 10 × 10^6 cells were injected into a mouse subcutaneously along the spine to the level of the left scapula. Mice were divided into 4 groups: (1) 5 × 10^6 NCI-H69 SCID (n = 5); (2) 5 × 10^6 NCI-H69 Nude (n = 5); (3) 10 × 10^6 NCI-H69 SCID (n = 5); and (4) 10 × 10^6 NCI-H69 Nude (n = 5).
The main experiment (injection of the drugs) took place after the tumor growth was established. The tumor growth in mice following the injection of cells was monitored twice a week and upon reaching the volume of ~ 100 mm^3, animals were randomized into 5 groups (12 female SCID mice in each group). The drug treatment was performed as follows: the first group was a control and received a placebo in the form of PBS (tumor volume 95 ± 38 mm^3); the second group received 12 mg/kg of Etoposide (tumor volume 101 ± 51 mm^3); the third group was injected with 4 mg/kg of MK2.III (tumor volume 105 ± 44 mm^3); fourth and fifth groups were injected with 12 mg/kg of Etoposide and 4 mg/kg or 2 mg/kg of MK2.III (tumor volumes 112 ± 57 and 107 ± 49 mm^3 respectively). Drugs were injected intraperitoneally daily. Etoposide was injected 3 days after the randomization into groups and MK2.III was administered for 28 days. Tumor growth/suppression was measured using calipers every 3–4 days for the duration of the 28-day treatment and the tumor volume was calculated as follows:[…],
Antitumor properties of drugs in the test group were determined based on the slowing of the tumor growth or tumor volume compared with the control group receiving PBS. Animal welfare was monitored throughout the study period to ensure that animals in distress were euthanized by carbon dioxide asphyxiation. All the animals were also euthanized by carbon dioxide asphyxiation following the completion of the study.
Descriptive statistics were used to summarize the tumor size and data reported as medians and 25th and 75th quartiles. Wilcoxon sum rank test was used to investigate the effects of the treatments on tumor growth. […] Statistical analyses were performed on the SigmaPlot 11.0 software.

NCI-H69 cells [5] = experiment: FACS-based cell cycle analysis; parameters: species or system human; conditions: single treatment, increasing dose
Description: The cells were grown in 12 well plates (Scientific Laboratory Supplies Limited, UK) in RPMI 1640 (Gibco, UK) supplemented with 10% FBS (Autogen Bioclear, UK) and 10,000 U/ml penicillin and 10 mg/ml streptomycin (Sigma, UK) at 37 °C under 5% CO2 and treated with 10, 20, 50, 100 and 150 µM of DNA damaging agent etoposide (VP-16) (Sigma, UK) in the presence or absence of p38MAPK inhibitor SB203580 (Tocris Chemical Co., UK) or MK2 inhibitor MK2.III (Merck, UK) in concentrations of 0, 0.3125, 0.625, 1.25, 2.5, and 5.0 µM. Etoposide, SB203580 and MK2.III were all dissolved in 0.2% of DMSO before use. Cells treated only with the carrier molecule DMSO (0.2%) served as a control.
Viability analysis was performed by staining with the […], stoichiometric DNA stain DRAQ7 (640 or 633 nm excitation and 670 nm emission; Biostatus Limited). After 48-h treatment with DNA damaging agents and/or inhibitors, cells were washed once with RPMI 1640 and resuspended in 1 ml culture media at a concentration of less than 5 × 10^5/ ml. Cells were stained with 20 µM of DRAQ7 and incubated at 37 °C for 10 min before FACS Calibur cytometer analysis. Fluorescent signals were amplified using linear mode. Cell cycle analysis was performed either by staining DRAQ7 or Propidium Iodide (PI). Cells were stained with 20 µM of DRAQ7 and incubated at 37 °C for 10 min before analysis on a FACSCalibur cytometer. […]

[6] = parameters: method as in PMID 26502061; conditions: cited from earlier work

O=C1NCCc2[nH]c(-c3ccnc(-c4cnc5ccccc5c4)c3)cc21 [MK2.III]
Viable cells (%) (NCI-H69 cells [1]; Table 1 dose response, agent alone 0.321 µM (lowest dose), 48 h): 87.4% | Viable cells (%) (NCI-H69 cells [1]; Table 1 dose response, agent alone 0.626 µM, 48 h): 90.2% | Viable cells (%) (NCI-H69 cells [1]; Table 1 dose response, agent alone 1.25 µM, 48 h): 87.3% | Viable cells (%) (NCI-H69 cells [1]; Table 1 dose response, agent alone 2.5 µM, 48 h): 88.4% | Viable cells (%) (NCI-H69 cells [1]; Table 1 dose response, agent alone 5.0 µM (highest dose), 48 h): 83.5% | Viable cells (%) (NCI-H69 cells [1]; Table 2, VP-16 0 µM (inhibitor alone: MK2.III 1.0 µM or SB203580 2.5 µM), DMSO control 74.6%): 66.1% | Effect of single agent on viability [2]: does not affect the viability | Decrease of viability by single agent [3]: 30% | Effect of single agent on viability [4]: does not affect the viability | Difference in tumor size versus control (NCI-H69 xenograft; at any checkpoint, etoposide 12 mg/kg, MK2.III 4 mg/kg, or etoposide + MK2.III 2 mg/kg): no significant difference | Tumor Volume (mm^3) median (25th and 75th quartile) (NCI-H69 xenograft; day 11 upon treatment, MK2.III 4 mg/kg IP daily): 516 (401;703) mm^3 | Tumor Volume (mm^3) median (25th and 75th quartile) (NCI-H69 xenograft; day 18 upon treatment, MK2.III 4 mg/kg IP daily): 843 (712;1197) mm^3 | Tumor Volume (mm^3) median (25th and 75th quartile) (NCI-H69 xenograft; day -1 upon treatment (baseline), MK2.III 4 mg/kg IP): 106 (72;132) mm^3 | Effect on cell cycle profile, single agent (NCI-H69 cells [5]): little effect on the cell cycle profile | Solubility [6]: poor solubility
